Series [1] has as its system AD patients. The following applies: cited from earlier work; for cognition and memory: patients with mild cognitive impairment and AD, ref [16]. From the text: Worldwide, approximately 416 million individuals are affected by AD dementia, prodromal AD, or preclinical AD, accounting for 22% of the population aged 50 years and older.
Series [2] in a line: Dynamic light scattering, quaternary structure of GLP-1RAs. The format is physicochemical. The following applies: DLS, 25 °C, pH 7.4. Here is the method:
DLS measurements were carried out using a Zetasizer Nano ZS system (Malvern Instruments Ltd., Malvern, UK). The backscattered light from a 4 mW He-Ne laser at 632.8 nm was collected at an angle of 173°. […] The acquisition time for a single autocorrelation function was 100 s. The resulting autocorrelation functions were averaged values from three measurements. The volume-weighted size distributions were calculated using the following parameters for the buffer: the refractive index of 1.334 was measured using the RL3 refractometer (PZO, Warszawa, Poland); the viscosity value η = 0.95 mPa∙s was measured using a micro-rheology method with a water suspension of standard latex nanoparticles (NIST 3060A, Thermo Fisher Scientific, Waltham, MA, USA). The molecular mass and its standard deviation corresponding to the volume-weighted hydrodynamic radius MWRh distribution was calculated in approximation of a globular protein according to the equations from ref. [86]. The degree of multimerization was calculated as the MWRh/MWm ratio, where MWm is the molecular mass of the monomeric GLP-1RAs calculated from their molecular structure.

Series [3] deals with Aβ40 fibrillation. Description: ThT fluorescence assay of Aβ40 fibrillation. The format is biochemical, Human. The following applies: 20 µM Aβ40, 10 µM GLP-1RA, 30 °C, pH 7.4. How it is done: The influence of GLP-1RAs on Aβ40 fibril formation at 30 °C was studied using the ThT fluorescence assay at ThT and GLP-1RA concentrations of 10 μM for both components (Figure 4).
Standard deviations of the fluorescence signals are indicated. Excitation wavelength of 440 nm.
The Aβ40 sample was prepared as described in ref. [82] with some modifications (~5 mM NaOH at pH 11.8, 0.5 mg/mL). […] The control curves (without Aβ40; Figure S1) were subtracted from the corresponding kinetic curves of Aβ40 samples with/without GLP-1RAs. Each measurement was performed in 2–10 repetitions. The mean fluorescence signal values for each experimental sample were normalized to the average fluorescence signal corresponding to the saturation phase of Aβ40 fibril formation without additives. Data are presented as mean ± standard deviation.

The conditions of series [4]: cited from earlier work.
The test system of series [5] is animal AD models. The following applies: ref [29]; cited from earlier work.
Series [6] has as its system Aβ40 fibrils. As to the kind of experiment: Negative-staining TEM of Aβ40 fibrils. The format is biochemical, Human. How it is done: The scale bars represent 1 μm.
A copper grid (300-mesh) coated with a 0.2% formvar film was placed on a 10 µL drop of the sample. […] Excess stain was removed using filter paper, and the grid was rinsed in deionized water for 1 min. The samples were analyzed using a JEM-1400Plus (HC) transmission electron microscope (JEOL, Ltd., Tokyo, Japan) at an accelerating voltage of 80 keV.

Series [7] relates to cultured neuronal cells. The following applies: ref [30], cited from earlier work.
In series [8] the test system is Aβ levels in the mouse brain. The following applies: in vivo; ref [30]; cited from earlier work. The source says:
The N-terminally truncated forms of GLP-1, GLP-1(7-36)/(7-37), secreted from intestinal L cells, control meal-related glycemic excursions by augmentation of insulin expression and secretion and inhibition of glucagon release (reviewed in [21]). Some population of neurons in the nucleus tractus solitarii of the brainstem can also express GLP-1 [22, 23].

The conditions of series [9]: b29: plasma concentrations; ref [61],[62]; cited from earlier work.
The subject of series [10] is serum albumin (HSA). The following applies: attached fatty acid chain; ref [44],[45]; cited from earlier work.
The test system of series [11] is APP/PS1 AD mice. The following applies: ref [47],[48],[49]; cited from earlier work.
In series [12] the test system is SH-SY5Y cells. Description: MTT assay, Aβ40 cytotoxicity toward SH-SY5Y cells. The following applies: 48 h.
Method: (§1) GLP-1RAs were premixed with Aβ40/Aβ42 at an equimolar ratio in serum-free medium and added to the SH-SY5Y cells cultured in the same medium to a final concentration of both components of 10 µM. Staining with MTT was performed after incubation of the cells for 48 h.
(§2) Mean values and standard deviations are indicated.
(§3) Human neuroblastoma SH-SY5Y cells were cultured in DMEM-F12 medium supplemented with 1% penicillin-streptomycin-glutamine and 10% fetal bovine serum at 37 °C for 24 h in a humidified atmosphere with 5% CO2. Upon reaching 80% confluence, the cells were harvested and seeded into 96-well plates at a density of 15 × 10^5 cells per well in serum-free DMEM/F12 + PSG medium.
(§4) The Aβ40/Aβ42 samples were dissolved in fresh 1% NH4OH at a concentration of 0.5 mg/mL, followed by freeze-drying.
(§5) Freshly prepared Aβ40/Aβ42, GLP-1RAs, or their mixtures were added (100 µL per well) to the cultures 24 h after seeding to a final concentration of both components of 10 µM. The final volume of medium in the well was 200 µL. The MTT assay, designed to assess cellular metabolic activity, was performed after incubation of the cells for 48 h. MTT (0.005 mg/mL) was added and the cells were incubated for 3 h, followed by solubilization of the cells using DMSO. […] The resulting values were normalized relative to the control group of the untreated cells (100%). […]
Series [13] deals with SH-SY5Y cells. As to the kind of experiment: MTT assay, Aβ42 cytotoxicity toward SH-SY5Y cells. The following applies: 48 h. (Tetrazolium dyes change colour on reduction, which living cells bring about.)
Method: as §1, §2, §3, §4
Freshly prepared Aβ40/Aβ42, GLP-1RAs, or their mixtures were added (100 µL per well) to the cultures 24 h after seeding to a final concentration of both components of 10 µM. The final volume of medium in the well was 200 µL. The MTT assay, designed to assess cellular metabolic activity, was performed after incubation of the cells for 48 h. MTT (0.005 mg/mL) was added and the cells were incubated for 3 h, followed by solubilization of the cells using DMSO. […] The resulting values were normalized relative to the control group of the untreated cells (100%). Data are presented as mean ± standard deviation (n = 5–10).
Series [14] concerns SH-SY5Y cells. As to the kind of experiment: MTT assay, Aβ (Aβ40/Aβ42) cytotoxicity toward SH-SY5Y cells. The following applies: 10 µM Aβ40/Aβ42 and 10 µM GLP-1RA, 48 h, summary table.
Method: as §1, §2, §3, §4, §5

“Also recorded” adds a separate entry of the source. Read-outs that look alike come from different tables or passages of the source. Ends that are not written are not given here.

Consider insulin [intranasal insulin], for which the cognition and memory result in series [1] was “can improve cognition and memory”.

As to `CC[C@H](C)[C@H](NC(=O)[C@H](Cc1ccccc1)NC(=O)[C@H](CCC(=O)O)NC(=O)[C@H](CCCCN)NC(=O)[C@H](C)NC(=O)[C@H](C)NC(=O)[C@H](CCC(N)=O)NC(=O)CNC(=O)[C@H](CCC(=O)O)NC(=O)[C@H](CC(C)C)NC(=O)[C@H](Cc1ccc(O)cc1)NC(=O)[C@H](CO)NC(=O)[C@H](CO)NC(=O)[C@@H](NC(=O)[C@H](CC(=O)O)NC(=O)[C@H](CO)NC(=O)[C@@H](NC(=O)[C@H](Cc1ccccc1)NC(=O)[C@@H](NC(=O)CNC(=O)[C@H](CCC(=O)O)NC(=O)[C@H](C)NC(=O)[C@@H](N)Cc1c[nH]cn1)[C@@H](C)O)[C@@H](C)O)C(C)C)C(=O)N[C@@H](C)C(=O)N[C@@H](Cc1c[nH]c2ccccc12)C(=O)N[C@@H](CC(C)C)C(=O)N[C@H](C(=O)N[C@@H](CCCCN)C(=O)NCC(=O)N[C@@H](CCCNC(=N)N)C(=O)NCC(=O)O)C(C)C` [GLP-1(7-37)], the “oligomerization, in words” value in series [2] is listed as “strong oligomerization”. In addition, the “molecular mass from Rh (MWRh)” value in series [2] (5–83 µM, globular protein approximation) is on record as >7 × 10^5 kDa. Further, the “Effect on Aβ40 Fibrillation (Figure 4 and Figure 5)” value in series [3] (ThT assay and TEM, summary table) is “Inhibition”. For the same molecule, the “effect on Aβ40 fibrillation” value in series [3] (ThT assay, 10 μM ThT, 25 mM Tris-HCl, 140 mM NaCl, ex 440/em 485 nm, 2–10 repetitions) is recorded as “inhibit Aβ40 fibrillation; also recorded: suppressed Aβ40 fibrillation; also recorded: suppression of Aβ40 fibrillation”. For the same molecule, the “ability to cross the BBB” value in [4] (in vivo) is listed as “possessed”. Further, in series [5], the “AD Animal Data: learning and memory” value is “Positive effects on learning and memory [29]”.

With glucagon-like peptide 1 [GLP-1], the “appearance of Aβ40 fibrils by TEM” value in series [6] (after ThT assay, 20 µM Aβ40 with 10 μM GLP-1RA, 1% uranyl acetate) was “sporadic small fibril clusters were still observed”.

Take “GLP-1(7-36): N-terminally truncated form of glucagon-like peptide 1, residues 7-36 (HAEGTFTSDVSSYLEGQAAKEFIAWLVKGR; ends and bridges not checked; UniProt P01275 98-127, looked up)”: in series [7] (cultured hippocampal neurons), the “protection against Aβ/iron-induced death” value is listed as “protects cultured hippocampal neurons against Aβ/iron-induced death”. In [7] (cultured neuronal cells), the “levels of APP” value is “decrease levels of APP in cultured neuronal cells”. Also, the “Aβ levels in the mouse brain” value in series [8] is “reduce Aβ levels in the mouse brain in vivo”.

As for `CCCCCCCCCCCCCCCC(=O)N[C@@H](CCC(=O)NCCCC[C@H](NC(=O)[C@H](C)NC(=O)[C@H](C)NC(=O)[C@H](CCC(N)=O)NC(=O)CNC(=O)[C@H](CCC(=O)O)NC(=O)[C@H](CC(C)C)NC(=O)[C@H](Cc1ccc(O)cc1)NC(=O)[C@H](CO)NC(=O)[C@H](CO)NC(=O)[C@@H](NC(=O)[C@H](CC(=O)O)NC(=O)[C@H](CO)NC(=O)[C@@H](NC(=O)[C@H](Cc1ccccc1)NC(=O)[C@@H](NC(=O)CNC(=O)[C@H](CCC(=O)O)NC(=O)[C@H](C)NC(=O)[C@@H](N)Cc1cnc[nH]1)[C@@H](C)O)[C@@H](C)O)C(C)C)C(=O)N[C@@H](CCC(=O)O)C(=O)N[C@@H](Cc1ccccc1)C(=O)N[C@H](C(=O)N[C@@H](C)C(=O)N[C@@H](Cc1c[nH]c2ccccc12)C(=O)N[C@@H](CC(C)C)C(=O)N[C@H](C(=O)N[C@@H](CCCNC(=N)N)C(=O)NCC(=O)N[C@@H](CCCNC(=N)N)C(=O)NCC(=O)O)C(C)C)[C@@H](C)CC)C(=O)O` [Lira, liraglutide], the “ability to cross the BBB” value in series [4] (conclusions, ref Table 4) was “possessed”. Also, in series [9], the peak plasma concentrations was 20 to 120 nM. Moreover, in series [10], the “binding to serum albumin / clearance” value is on record as “favors binding to serum albumin, thereby slowing the clearance of Lira”. The “crosses the BBB” value in series [11] was “crosses the BBB”. Moreover, the “effect on Aβ40 cytotoxicity” value in series [12] (10 µM Aβ40 + 10 µM GLP-1RA, serum-free medium) is listed as “abolished this effect”. In addition, in series [13] (10 µM Aβ42 + 10 µM GLP-1RA, serum-free medium), the “effect on Aβ42 cytotoxicity” value is “abolished this effect; also recorded: most pronounced increase in the viability of SH-SY5Y cells”. For the same molecule, the “Effect on Aβ Cytotoxicity to SH-SY5Y Cells (Figure 7)” value in series [14] is on record as “Protection”.

Take donanemab: the side effects entry in series [1] (human, in vivo) was “brain edema and microhemorrhages”.

For the molecule `CN(C)C(=N)N=C(N)N` [metformin], the cognition and memory entry in series [1] is “can improve cognition and memory”.

In the case of amyloid-β peptide, residues 1-42 [Aβ42], in [13] (10 µM Aβ42 alone, n = 5–10), the “decrease in cell survival” value was 37%.

In the case of amyloid-β peptide, residues 1-40 [Aβ40], the fibril length entry in series [6] (printed as "up to", Aβ40 with 10 μM GLP-1RA) is listed as “up to 2 µm”. Besides, in [12] (10 µM Aβ40 alone, n = 5–10), the “decrease in cell survival” value was determined as 22%.

Source of the values: article PMC12071944, “Interaction Between Glucagon-like Peptide 1 and Its Analogs with Amyloid-β Peptide Affects Its Fibrillation and Cytotoxicity” (International Journal of Molecular Sciences, 2025).
